Source: patent publication US20230023559A1, “ARYLMETHYLENE HETEROCYCLIC COMPOUNDS AS KV1.3 POTASSIUM SHAKER CHANNEL BLOCKERS” (D. E. Shaw Research, LLC, priority 2019, published 2023)
pIC50: −log10 of the molar value.

How the values were obtained:
Kv1.3 potassium channel = molecular target: T1, Kv1.3 potassium channel (Homo sapiens, UniProt P22001); assay: Kv1.3 potassium channel blocker activity, automated whole-cell patch clamp (Patchliner); assay type: cell-based; details: CHO-K1 cells stably expressing Kv1.3; whole cell current inhibition; read-out: Kv1.3_IC50
T1 construct: expressed in transfected cells
T1 sequence (P22001 whole entry): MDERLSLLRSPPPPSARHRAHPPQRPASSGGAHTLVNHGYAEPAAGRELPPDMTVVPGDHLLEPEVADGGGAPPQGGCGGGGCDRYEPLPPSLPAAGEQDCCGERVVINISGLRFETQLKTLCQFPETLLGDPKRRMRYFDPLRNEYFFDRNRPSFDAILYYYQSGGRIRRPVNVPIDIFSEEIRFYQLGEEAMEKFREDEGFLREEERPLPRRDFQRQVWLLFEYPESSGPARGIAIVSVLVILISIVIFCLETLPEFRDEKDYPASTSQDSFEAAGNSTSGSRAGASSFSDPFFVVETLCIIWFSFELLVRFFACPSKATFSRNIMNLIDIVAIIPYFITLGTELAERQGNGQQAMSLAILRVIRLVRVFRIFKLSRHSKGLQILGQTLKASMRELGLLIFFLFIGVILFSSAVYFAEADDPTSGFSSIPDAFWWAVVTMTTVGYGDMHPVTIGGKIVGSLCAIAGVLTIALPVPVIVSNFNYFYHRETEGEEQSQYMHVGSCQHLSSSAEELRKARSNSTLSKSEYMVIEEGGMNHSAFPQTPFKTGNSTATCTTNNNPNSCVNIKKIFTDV
Summary of the method: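 CHO-K1 cells stably expressing Kv1.3, automated whole-cell patch clamp. Currents evoked by 100 ms steps from −90 mV holding to +40 mV at 0.1 Hz, sampled at 10 kHz unfiltered, P/4 leak subtraction; peak current inhibition measured, compound incubation ≤10 s between pulse trains.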

hERG channel = hERG channel (Homo sapiens, UniProt Q12809); assay: hERG electrophysiology, automated whole-cell patch clamp (Patchliner)
hERG channel, sequence (Q12809 whole entry): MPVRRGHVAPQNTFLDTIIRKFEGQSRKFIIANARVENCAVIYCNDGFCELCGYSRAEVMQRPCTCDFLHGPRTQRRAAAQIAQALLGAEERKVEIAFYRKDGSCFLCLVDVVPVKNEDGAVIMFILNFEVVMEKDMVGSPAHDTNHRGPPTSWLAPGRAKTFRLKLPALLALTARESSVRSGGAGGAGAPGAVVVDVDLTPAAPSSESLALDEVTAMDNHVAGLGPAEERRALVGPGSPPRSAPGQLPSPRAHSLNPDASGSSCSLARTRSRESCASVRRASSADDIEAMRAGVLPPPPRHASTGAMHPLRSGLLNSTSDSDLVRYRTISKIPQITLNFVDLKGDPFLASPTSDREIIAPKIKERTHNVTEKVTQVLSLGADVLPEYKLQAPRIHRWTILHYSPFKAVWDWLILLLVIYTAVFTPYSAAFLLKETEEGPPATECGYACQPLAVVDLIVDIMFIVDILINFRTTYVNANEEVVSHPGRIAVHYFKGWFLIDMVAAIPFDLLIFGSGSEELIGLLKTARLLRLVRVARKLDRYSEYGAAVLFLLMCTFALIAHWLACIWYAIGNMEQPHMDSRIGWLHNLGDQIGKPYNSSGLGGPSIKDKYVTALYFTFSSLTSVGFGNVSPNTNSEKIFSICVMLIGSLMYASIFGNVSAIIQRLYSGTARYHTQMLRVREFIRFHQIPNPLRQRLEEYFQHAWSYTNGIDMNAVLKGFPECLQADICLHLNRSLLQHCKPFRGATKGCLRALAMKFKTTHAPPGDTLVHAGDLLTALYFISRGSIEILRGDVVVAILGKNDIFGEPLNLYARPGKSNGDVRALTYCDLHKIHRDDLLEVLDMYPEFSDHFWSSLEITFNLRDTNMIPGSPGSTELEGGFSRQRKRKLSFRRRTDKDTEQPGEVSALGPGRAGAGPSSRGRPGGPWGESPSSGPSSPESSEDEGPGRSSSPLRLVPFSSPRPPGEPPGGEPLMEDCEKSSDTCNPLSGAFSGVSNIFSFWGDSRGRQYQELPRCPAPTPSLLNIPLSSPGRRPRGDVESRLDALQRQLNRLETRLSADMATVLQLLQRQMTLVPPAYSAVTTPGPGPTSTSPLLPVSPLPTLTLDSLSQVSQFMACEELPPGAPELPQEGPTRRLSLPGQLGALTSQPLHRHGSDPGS
Protocol: CHO-K1 cells stably expressing hERG were grown in Ham's F-12 Medium with Glutamine containing 10% heat-inactivated FBS, 1% Penicillin/Streptomycin, Hygromycin (100 μg/ml) and G418 (100 μg/ml). Cells were grown in culture flasks at 37° C. in a 5% CO2-humidified incubator.
The cells were bathed in an extracellular solution containing 140 mM NaCl, 4 mM KCl, 2 mM CaCl2), 1 mM MgCl2, 5 mM Glucose, 10 mM HEPES; pH adjusted to 7.4 with NaOH; 295-305 mOsm. The internal solution contained 50 mM KCl, 10 mM NaCl, 60 mM KF, 20 mM EGTA, 10 mM HEPES; pH adjusted to 7.2 with KOH; 285 mOsm. All compounds were dissolved in DMSO at 30 mM. Compound stock solutions were freshly diluted with external solution to concentrations of 30 nM, 100 nM, 300 nM, 1 μM, 3 μM, 10 μM, 30 μM and 100 μM. The highest content of DMSO (0.3%) was present in 100 μM.
The voltage protocol (see Table B) was designed to simulate voltage changes during a cardiac action potential with a 300 ms depolarization to +20 mV (analogous to the plateau phase of the cardiac action potential), a repolarization for 300 ms to −50 mV (inducing a tail current) and a final step to the holding potential of −80 mV. The pulse frequency was 0.3 Hz. Control (compound-free) and compound pulse trains for each compound concentration applied contained 70 pulses.
Whole cell current recordings and compound application were enabled by means of an automated patch clamp platform Patchliner (Nanion). EPC 10 patch clamp amplifier (HEKA) along with Patchmaster software (HEKA Elektronik Dr. Schulze GmbH) was used for data acquisition. Data were sampled at 10 kHz without filtering. Increasing compound concentrations were applied consecutively to the same cell without washouts in between.
AUC and PEAK values were obtained with Patchmaster (HEKA Elektronik Dr. Schulze GmbH). To determine IC50 the last single pulse in the pulse train corresponding to a given compound concentration was used. Obtained AUC and PEAK values in the presence of compound were normalized to control values in the absence of compound. Using Origin (OridinLab), IC50 was derived from data fit to Hill equation: Icompound/Icontrol=(100−A)/(1+([compound]/IC50)nH)+A, where IC50 is the concentration at which current inhibition is half-maximal, [compound] is the applied compound concentration, A is the fraction of current that is not blocked and nH is the Hill coefficient.

Structure (SMILES) | pIC50 (Kv1.3 potassium channel) | pIC50 (hERG channel)
O=C([C@@H]1CCNC1)N1CCC([C@H](O)c2cc(Cl)c(Cl)cc2O)CC1 (single isomer, unassigned) [Compound 115] | > 6.30 | < 4.52
N[C@@H](c1cc(Cl)c(Cl)cc1O)C1CCN(C(=O)C2COCCN2)CC1 (stereo partly drawn) [Compound 144, 2-[(R)-amino[1-(morpholine-3-carbonyl)piperidin-4-yl]methyl]-4,5-dichlorophenol trifluoroacetic acid] | > 5.00 | < 4.52
C[C@@H](O)[C@@H](N)C(=O)N1CCC([C@@H](N)c2cc(Cl)c(Cl)cc2O)CC1 [Compound 199, (2R,3R)-2-amino-1-[4-[(R)-amino(4,5-dichloro-2-hydroxyphenyl)methyl]piperidin-1-yl]-3-hydroxybutan-1-one trifluoroacetic acid] | > 6.30 | < 4.52
NC(c1c(O)cc(Cl)c(Cl)c1Cl)C1CCNCC1 (stereo not drawn) [Compound 37, 2-[amino(piperidin-4-yl)methyl]-3,4,5-trichlorophenol Trifluoroacetic Acid] | > 5.00 | < 4.52
Oc1cc(Cl)c(Cl)cc1[C@H](O)C1CCNCC1 (single isomer, unassigned) [Compound 7] | > 5.00 | < 4.52
N[C@@H](c1cc(Cl)c(Cl)cc1O)C1CCN(C(=O)[C@H]2CNC(=O)OC2)CC1 (single isomer, unassigned; isomer 1) [Compound 338] | > 6.30 | < 4.52
CC(C)C(N)C(=O)N1CCC([C@@H](N)c2cc(Cl)c(Cl)cc2O)CC1 (stereo partly drawn) [Compound 156, 2-amino-1-[4-[(R)-amino(4,5-dichloro-2-hydroxyphenyl)methyl]piperidin-1-yl]-3-methylbutan-1-one trifluoroacetic acid] | > 5.00 | < 4.52
N[C@@H](c1cc(Cl)c(Cl)cc1O)C1CCN(C(=O)C(CO)CO)CC1 [Compound 303, 1-[4-[(R)-amino(4,5-dichloro-2-hydroxyphenyl)methyl]piperidin-1-yl]-3-hydroxy-2-(hydroxymethyl) propan-1-one trifluoroacetic acid] | > 6.30 | < 4.52
CC(=O)N1CCC([C@@H](N)c2cc(Cl)c(Cl)cc2O)CC1 (single isomer, unassigned) [Compound 20] | > 6.30 | > 4.52
Cc1cc(O)c([C@H](N)C2CCN(C(=O)c3c[nH]c(=O)c(Cl)c3)CC2)cc1Cl [Compound 241, 5-[4-[(R)-amino (5-chloro-2-hydroxy-4-methylphenyl)methyl]piperidine-1-carbonyl]-3-chloro-1H-pyridin-2-one trifluoro-acetic acid] | > 6.30 | < 4.52
NC(=O)N1CCC([C@H](N)c2cc(Cl)c(Cl)cc2O)CC1 (single isomer, unassigned) [Compound 81] | > 6.30 | < 4.52
C[C@H](N)C(=O)N1CCC([C@H](N)c2cc(Cl)c(Cl)cc2O)CC1 (single isomer, unassigned) [Compound 75] | > 5.00 | < 4.52
N[C@@H](c1cc(Cl)c(F)cc1O)C1CCN(C(=O)[C@H](O)CO)CC1 [Compound 285, (2R)-1-[4-[(R)-amino(5-chloro-4-fluoro-2-hydroxyphenyl)methyl]piperidin-1-yl]-2,3-dihydroxypropan-1-one Trifluoroacetic Acid] | > 5.00 | –
N[C@@H](c1cc(Cl)c(C(F)F)cc1O)C1CCN(C(=O)[C@H](O)CO)CC1 [Compound 227, (2R)-1-[4-[(R)-amino[5-chloro-4-(difluoromethyl)-2-hydroxyphenyl]methyl]piperidin-1-yl]-2,3-dihydroxypropan-1-one Trifluoroacetic Acid] | > 6.30 | –
CN(C)C(c1cc(Cl)c(Cl)cc1O)C1CCN(C(=O)[C@H](O)CO)CC1 (stereo partly drawn) [Compound 193, (2R)-1-[4-[(4,5-dichloro-2-hydroxyphenyl)(dimethylamino)methyl]piperidin-1-yl]-2,3-dihydroxypropan-1-one Trifluoroacetic Acid] | > 4.52 | –
CS(=O)(=O)N1CCC(C(N)c2cc(Cl)c(Cl)cc2O)CC1 (stereo not drawn) [Compound 71, 2-[amino(1-methanesulfonylpiperidin-4-yl)methyl]-4,5-dichlorophenol Trifluoroacetic Acid] | > 5.00 | –
Cc1cc(O)c([C@H](N)C2CCN(C(=O)c3c[nH]c(=O)c4ccccc34)CC2)cc1Cl [Compound 325, 4-[4-[(R)-amino (5-chloro-2-hydroxy-4-methylphenyl)methyl]piperidine-1-carbonyl]-2H-isoquinolin-1-one trifluoroacetic acid] | > 6.30 | –
CC(=O)N1CCC(C(c2cc(Cl)c(Cl)cc2O)N2CCCC2)CC1 (stereo not drawn) [Compound 23, 1-(4-((4,5-dichloro-2-hydroxyphenyl)(pyrrolidin-1-yl)methyl)piperidin-1-yl)ethanone Trifluoroacetic Acid] | > 5.00 | –

Structure (SMILES) | pIC50 (Kv1.3 potassium channel) | pIC50 (hERG channel)
Cc1cc(O)c([C@H](N)C2CCN(C(=O)c3ccc4c(c3)NC(=O)CC4)CC2)cc1Cl [Compound 273, 7-[4-[(R)-amino (5-chloro-2-hydroxy-4-methylphenyl)methyl]piperidine-1-carbonyl]-3,4-dihydro-1H-quinolin-2-one trifluoroacetic acid] | > 5.00 | –
N[C@@H](c1cc(Cl)c(C2=CCCC2)cc1O)C1CCN(C(=O)[C@H](O)CO)CC1 [Compound 318, (2R)-1-[4-[(R)-amino[5-chloro-4-(cyclopent-1-en-1-yl)-2-hydroxyphenyl]methyl]piperidin-1-yl]-2,3-dihydroxypropan-1-one Trifluoroacetic Acid] | > 4.52 | –
N[C@@H](c1cc(Cl)c(Cl)cc1O)C1CCN(C(=O)c2ccc(=O)[nH]n2)CC1 [Compound 253, 6-[4-[(R)-amino(4,5-dichloro-2-hydroxyphenyl)methyl]piperidine-1-carbonyl]-2H-pyridazin-3-one trifluoroacetic acid] | > 6.30 | –
N[C@@H](c1cc(Cl)c(Cl)cc1O)C1C2CCC1CN(C(=O)[C@H](O)CO)C2 (stereo partly drawn) [Compound 313, (2R)-1-[8-[(R)-amino(4,5-dichloro-2-hydroxyphenyl)methyl]-3-azabicyclo[3.2.1]octan-3-yl]-2,3-dihydroxypropan-1-one Trifluoroacetic Acid] | > 5.00 | –
CN1C[C@H](C(=O)N2CCC([C@@H](N)c3cc(Cl)c(Cl)cc3O)CC2)OCC1=O (single isomer, unassigned; isomer 1) [Compound 274] | > 6.30 | –
Oc1cc(Cl)c(Cl)cc1C(C1CCNCC1)n1cccn1 (stereo not drawn) [Compound 13, 4,5-dichloro-2-[piperidin-4-yl(1H-pyrazol-1-yl)methyl]phenol] | > 5.00 | –
N[C@H](c1cc(Cl)c(Cl)cc1O)C1CCN(C(=O)[C@H]2CCNC2)CC1 [Compound 79, (4-((S)-amino(4,5-dichloro-2-hydroxyphenyl)methyl)piperidin-1-yl)((S)-pyrrolidin-3-yl)methanone] | > 5.00 | –
Nc1cnc(C(=O)N2CCC([C@@H](N)c3cc(Cl)c(Cl)cc3O)CC2)cn1 [Compound 307, 2-[(R)-amino[1-(5-aminopyrazine-2-carbonyl)piperidin-4-yl]methyl]-4,5-dichlorophenol trifluoroacetic acid] | > 5.00 | –
O=S(=O)([C@@H]1CCNC1)N1CCC([C@@H](O)c2cc(Cl)c(Cl)cc2O)CC1 (single isomer, unassigned; isomer 4) [Compound 127, 4,5-dichloro-2-(hydroxy(1-(pyrrolidin-3-ylsulfonyl)piperidin-4-yl)methyl)phenol Isomer 4] | > 6.30 | –
NC(c1cc(Cl)c(Cl)cc1O)C1CCN(C(=O)C(F)(F)F)CC1 (stereo not drawn) [Compound 77, 1-[4-[amino(4,5-dichloro-2-hydroxyphenyl)methyl]piperidin-1-yl]-2,2,2-trifluoroethan-1-one Trifluoroacetic Acid] | > 5.00 | –
CN1CCC([C@H](O)c2cc(Cl)c(Cl)cc2O)CC1 (single isomer, unassigned) [Compound 319] | > 5.00 | –
Cc1cc(CN2CCC(C(N)c3cc(Cl)c(Cl)cc3O)CC2)no1 (stereo not drawn) [Compound 58, 2-[amino([1-[(5-methyl-1,2-oxazol-3-yl)methyl]piperidin-4-yl])methyl]-4,5-dichlorophenol Trifluoroacetic Acid] | > 5.00 | –
CC(=O)N1CCC(C(CN)c2cc(Cl)c(Cl)cc2O)CC1 (stereo not drawn) [Compound 28, 1-[4-[2-amino-1-(4,5-dichloro-2-hydroxyphenyl)ethyl]piperidin-1-yl]ethan-1-one] | > 4.52 | –
N[C@H](c1cc(Cl)c(Cl)cc1O)[C@@H]1CCN(C(=O)[C@H](O)CO)C1 [Compound 310, (2R)-1-[(3R)-3-[(S)-amino(4,5-dichloro-2-hydroxyphenyl)methyl]pyrrolidin-1-yl]-2,3-dihydroxypropan-1-one] | > 5.00 | –
NC(c1cc(Cl)c(Cl)cc1O)C1CCN(CC(F)F)CC1 (stereo not drawn) [Compound 62, 2-(amino(1-(2,2-difluoroethyl)piperidin-4-yl)methyl)-4,5-dichlorophenol Trifluoroacetic Acid] | > 5.00 | –
CC(C)(N)C(=O)N1CCC([C@@H](N)c2cc(Cl)c(Cl)cc2O)CC1 [Compound 90, (R)-2-amino-1-(4-(amino(4,5-dichloro-2-hydroxyphenyl)methyl)piperidin-1-yl)-2-methylpropan-1-one trifluoroacetic acid] | > 6.30 | –
N[C@H](c1cc(Cl)c(Cl)cc1O)[C@@H]1CCCN(C(=O)[C@H](O)CO)C1 [Compound 330, (2R)-1-[(3R)-3-[(S)-amino(4,5-dichloro-2-hydroxyphenyl)methyl]piperidin-1-yl]-2,3-dihydroxypropan-1-one Trifluoroacetic Acid] | < 5.00 | –
NC(c1c(O)ccc(Cl)c1Cl)C1CCNCC1 (stereo not drawn) [Compound 86, 2-[amino(piperidin-4-yl)methyl]-3,4-dichlorophenol Bis(Trifluoroacetic Acid)] | > 4.52 | –
